{"source": "paper doi:10.1101/2023.10.20.563248v1", "about": "(biorxiv, 2023)", "details_in_all_cases": "1 µM; inhibitor", "key": {"PAK6": {"molecular_target": "PAK6 (Homo sapiens, UniProt Q9NQU5)"}, "EIF2AK2": {"molecular_target": "EIF2AK2 (Homo sapiens, UniProt P19525)"}, "CLK3": {"molecular_target": "CLK3 (Homo sapiens, UniProt P49761)"}, "MAP3K11": {"molecular_target": "MAP3K11 (Homo sapiens, UniProt Q16584)", "sequence (Q16584 whole entry)": "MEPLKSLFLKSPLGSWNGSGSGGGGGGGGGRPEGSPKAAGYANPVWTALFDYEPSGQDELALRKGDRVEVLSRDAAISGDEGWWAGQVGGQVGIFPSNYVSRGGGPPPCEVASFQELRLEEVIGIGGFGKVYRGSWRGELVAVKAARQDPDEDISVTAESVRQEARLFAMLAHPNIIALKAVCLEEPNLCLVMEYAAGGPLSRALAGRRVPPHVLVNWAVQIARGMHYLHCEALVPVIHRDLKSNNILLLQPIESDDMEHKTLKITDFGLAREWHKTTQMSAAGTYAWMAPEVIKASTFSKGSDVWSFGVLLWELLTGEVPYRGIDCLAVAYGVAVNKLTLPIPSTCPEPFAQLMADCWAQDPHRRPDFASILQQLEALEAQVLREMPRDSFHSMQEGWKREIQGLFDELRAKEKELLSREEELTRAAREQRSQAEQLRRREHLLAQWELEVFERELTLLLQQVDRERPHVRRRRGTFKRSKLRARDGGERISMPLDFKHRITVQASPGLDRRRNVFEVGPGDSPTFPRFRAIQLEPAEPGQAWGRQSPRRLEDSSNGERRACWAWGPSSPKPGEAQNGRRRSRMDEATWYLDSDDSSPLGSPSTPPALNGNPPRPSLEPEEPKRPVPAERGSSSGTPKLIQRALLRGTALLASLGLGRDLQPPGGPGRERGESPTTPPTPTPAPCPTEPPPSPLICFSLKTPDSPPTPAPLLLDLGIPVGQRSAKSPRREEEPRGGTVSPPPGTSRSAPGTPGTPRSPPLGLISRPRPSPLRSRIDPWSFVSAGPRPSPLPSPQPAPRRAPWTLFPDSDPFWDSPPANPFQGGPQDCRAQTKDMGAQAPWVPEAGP"}, "LIMK1": {"molecular_target": "LIMK1 (Homo sapiens, UniProt P53667)"}, "EPHA1": {"molecular_target": "EPHA1 (Homo sapiens, UniProt P21709)"}, "PAK3": {"molecular_target": "PAK3 (Homo sapiens, UniProt O75914)"}, "MEK5": {"molecular_target": "MEK5 (Homo sapiens, UniProt Q13163)"}, "VEGFR1": {"molecular_target": "VEGFR1 (Homo sapiens, UniProt P17948)"}, "ABL1": {"molecular_target": "ABL1 (Homo sapiens, UniProt P00519)"}, "EGFR": {"molecular_target": "EGFR (Homo sapiens, UniProt P00533)", "sequence (P00533 whole entry)": "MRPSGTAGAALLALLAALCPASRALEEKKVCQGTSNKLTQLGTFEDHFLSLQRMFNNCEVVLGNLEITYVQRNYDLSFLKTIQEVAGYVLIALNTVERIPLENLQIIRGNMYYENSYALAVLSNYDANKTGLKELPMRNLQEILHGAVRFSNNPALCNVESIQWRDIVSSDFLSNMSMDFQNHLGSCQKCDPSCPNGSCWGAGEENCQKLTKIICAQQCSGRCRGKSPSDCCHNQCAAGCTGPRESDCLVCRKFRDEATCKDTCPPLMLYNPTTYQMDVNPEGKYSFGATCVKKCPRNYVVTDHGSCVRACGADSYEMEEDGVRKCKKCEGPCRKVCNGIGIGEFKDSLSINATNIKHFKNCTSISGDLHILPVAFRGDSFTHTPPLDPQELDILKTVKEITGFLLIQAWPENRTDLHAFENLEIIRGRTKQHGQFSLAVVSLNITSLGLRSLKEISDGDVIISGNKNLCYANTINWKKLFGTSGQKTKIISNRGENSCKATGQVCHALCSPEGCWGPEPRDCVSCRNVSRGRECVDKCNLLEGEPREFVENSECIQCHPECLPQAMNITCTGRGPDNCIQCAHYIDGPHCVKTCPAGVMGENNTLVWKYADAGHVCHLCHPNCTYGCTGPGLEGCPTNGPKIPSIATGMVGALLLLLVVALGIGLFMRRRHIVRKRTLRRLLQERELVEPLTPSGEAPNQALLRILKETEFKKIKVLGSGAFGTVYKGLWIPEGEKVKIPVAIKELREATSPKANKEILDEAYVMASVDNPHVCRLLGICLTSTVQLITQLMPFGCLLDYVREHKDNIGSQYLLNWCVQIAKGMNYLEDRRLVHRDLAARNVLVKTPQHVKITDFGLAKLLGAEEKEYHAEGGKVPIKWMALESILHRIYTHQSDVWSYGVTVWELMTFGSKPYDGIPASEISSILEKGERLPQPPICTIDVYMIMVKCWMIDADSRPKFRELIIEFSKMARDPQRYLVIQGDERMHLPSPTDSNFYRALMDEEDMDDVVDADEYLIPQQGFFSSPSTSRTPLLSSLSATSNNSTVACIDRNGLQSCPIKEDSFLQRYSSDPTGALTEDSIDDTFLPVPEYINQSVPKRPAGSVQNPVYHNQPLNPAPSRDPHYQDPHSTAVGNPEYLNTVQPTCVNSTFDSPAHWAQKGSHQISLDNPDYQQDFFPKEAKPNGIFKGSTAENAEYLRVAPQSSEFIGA"}, "ACVR1B": {"molecular_target": "ACVR1B (Homo sapiens, UniProt P36896)"}, "ASK1": {"molecular_target": "ASK1 (Homo sapiens, UniProt Q99683)", "sequence (Q99683 whole entry)": "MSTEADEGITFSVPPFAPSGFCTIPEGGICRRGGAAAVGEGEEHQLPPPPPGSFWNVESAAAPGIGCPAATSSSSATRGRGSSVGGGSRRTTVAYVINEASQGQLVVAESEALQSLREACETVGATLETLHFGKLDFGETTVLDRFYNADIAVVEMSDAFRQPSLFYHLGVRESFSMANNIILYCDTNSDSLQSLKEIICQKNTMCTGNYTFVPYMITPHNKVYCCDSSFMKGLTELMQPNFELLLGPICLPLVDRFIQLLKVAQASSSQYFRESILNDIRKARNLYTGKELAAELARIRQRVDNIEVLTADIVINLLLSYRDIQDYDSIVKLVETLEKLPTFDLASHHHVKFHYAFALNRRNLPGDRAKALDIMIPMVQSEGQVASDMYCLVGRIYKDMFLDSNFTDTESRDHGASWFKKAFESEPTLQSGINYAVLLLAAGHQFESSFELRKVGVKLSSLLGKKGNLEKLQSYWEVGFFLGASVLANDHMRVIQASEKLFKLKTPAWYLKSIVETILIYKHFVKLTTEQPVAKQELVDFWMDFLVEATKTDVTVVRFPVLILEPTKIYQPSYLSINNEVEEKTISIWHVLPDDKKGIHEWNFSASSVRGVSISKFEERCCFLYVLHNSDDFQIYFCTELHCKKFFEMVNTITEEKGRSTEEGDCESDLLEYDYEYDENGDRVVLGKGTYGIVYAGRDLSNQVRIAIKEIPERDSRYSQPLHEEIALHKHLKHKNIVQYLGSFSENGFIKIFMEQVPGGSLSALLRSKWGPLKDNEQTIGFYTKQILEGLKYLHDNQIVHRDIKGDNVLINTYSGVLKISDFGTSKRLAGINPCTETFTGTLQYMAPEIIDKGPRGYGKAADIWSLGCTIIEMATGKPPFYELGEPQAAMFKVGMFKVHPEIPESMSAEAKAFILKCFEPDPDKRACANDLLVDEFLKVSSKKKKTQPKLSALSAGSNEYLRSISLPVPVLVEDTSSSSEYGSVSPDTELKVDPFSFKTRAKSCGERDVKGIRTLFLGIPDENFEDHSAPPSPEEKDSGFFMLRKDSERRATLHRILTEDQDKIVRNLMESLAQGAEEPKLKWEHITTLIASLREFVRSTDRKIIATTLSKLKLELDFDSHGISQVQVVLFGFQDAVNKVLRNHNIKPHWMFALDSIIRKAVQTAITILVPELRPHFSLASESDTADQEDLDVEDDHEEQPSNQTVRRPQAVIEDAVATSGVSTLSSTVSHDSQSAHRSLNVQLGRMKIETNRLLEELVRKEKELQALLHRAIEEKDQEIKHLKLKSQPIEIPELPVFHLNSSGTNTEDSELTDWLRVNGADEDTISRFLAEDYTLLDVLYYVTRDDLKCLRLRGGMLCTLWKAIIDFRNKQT"}, "STK39": {"molecular_target": "STK39 (Homo sapiens, UniProt Q9UEW8)"}, "INSRR": {"molecular_target": "INSRR (Homo sapiens, UniProt P14616)"}, "ERBB2": {"molecular_target": "ERBB2 (Homo sapiens, UniProt P04626)"}, "TSK2": {"molecular_target": "TSK2 (Homo sapiens, UniProt Q96PF2)"}, "PYK2": {"molecular_target": "PYK2 (Homo sapiens, UniProt Q14289)"}, "TYK2": {"molecular_target": "TYK2 (Homo sapiens, UniProt P29597)"}, "CLK4": {"molecular_target": "CLK4 (Homo sapiens, UniProt Q9HAZ1)", "sequence (Q9HAZ1 whole entry)": "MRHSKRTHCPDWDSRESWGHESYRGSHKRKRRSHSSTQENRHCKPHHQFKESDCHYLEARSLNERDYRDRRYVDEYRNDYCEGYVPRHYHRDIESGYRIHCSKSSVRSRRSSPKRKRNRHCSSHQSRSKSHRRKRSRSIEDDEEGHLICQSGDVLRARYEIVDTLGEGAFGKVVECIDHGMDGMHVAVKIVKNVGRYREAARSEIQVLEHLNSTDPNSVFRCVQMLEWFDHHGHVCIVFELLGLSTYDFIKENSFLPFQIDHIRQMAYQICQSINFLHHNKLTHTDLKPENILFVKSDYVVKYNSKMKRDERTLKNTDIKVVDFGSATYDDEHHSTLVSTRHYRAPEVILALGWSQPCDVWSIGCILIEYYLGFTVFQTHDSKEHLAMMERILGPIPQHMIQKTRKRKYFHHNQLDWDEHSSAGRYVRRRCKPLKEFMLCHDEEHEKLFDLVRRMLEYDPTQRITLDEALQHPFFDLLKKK"}, "PAK7": {"molecular_target": "PAK7 (Homo sapiens, UniProt Q9P286)"}, "SNARK": {"molecular_target": "SNARK (Homo sapiens, UniProt Q9H093)"}, "CK2a1": {"molecular_target": "CK2a1 (Homo sapiens, UniProt P68400)", "sequence (P68400 whole entry)": "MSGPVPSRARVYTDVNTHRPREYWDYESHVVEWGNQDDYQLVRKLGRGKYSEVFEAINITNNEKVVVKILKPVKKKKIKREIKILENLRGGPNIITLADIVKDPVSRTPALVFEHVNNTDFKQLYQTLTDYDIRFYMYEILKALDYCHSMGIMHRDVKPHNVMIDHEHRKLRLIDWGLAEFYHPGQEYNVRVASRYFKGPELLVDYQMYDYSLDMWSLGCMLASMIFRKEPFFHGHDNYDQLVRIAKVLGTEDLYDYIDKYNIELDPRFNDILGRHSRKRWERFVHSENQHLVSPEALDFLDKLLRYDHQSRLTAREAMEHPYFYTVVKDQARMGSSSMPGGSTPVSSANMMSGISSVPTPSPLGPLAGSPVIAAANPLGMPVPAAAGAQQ"}, "HIPK4": {"molecular_target": "HIPK4 (Homo sapiens, UniProt Q8NE63)", "sequence (Q8NE63 whole entry)": "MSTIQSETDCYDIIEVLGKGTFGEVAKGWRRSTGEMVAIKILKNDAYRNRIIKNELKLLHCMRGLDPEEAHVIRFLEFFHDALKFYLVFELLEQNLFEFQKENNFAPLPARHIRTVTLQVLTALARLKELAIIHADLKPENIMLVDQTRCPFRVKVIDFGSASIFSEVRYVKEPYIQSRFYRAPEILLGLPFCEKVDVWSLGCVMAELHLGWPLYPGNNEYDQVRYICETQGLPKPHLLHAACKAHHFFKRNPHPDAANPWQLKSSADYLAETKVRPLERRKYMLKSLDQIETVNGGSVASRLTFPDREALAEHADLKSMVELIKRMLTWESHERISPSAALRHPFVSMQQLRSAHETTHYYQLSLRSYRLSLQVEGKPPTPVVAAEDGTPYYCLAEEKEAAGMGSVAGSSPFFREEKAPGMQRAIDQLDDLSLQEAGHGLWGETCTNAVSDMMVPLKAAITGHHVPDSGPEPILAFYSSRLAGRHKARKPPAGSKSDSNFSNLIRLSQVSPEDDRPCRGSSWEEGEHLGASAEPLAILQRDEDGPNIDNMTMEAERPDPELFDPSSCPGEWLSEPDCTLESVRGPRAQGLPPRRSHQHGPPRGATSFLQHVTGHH"}, "HCK": {"molecular_target": "HCK (Homo sapiens, UniProt P08631)"}, "TNK1": {"molecular_target": "TNK1 (Homo sapiens, UniProt Q13470)"}, "WNK3": {"molecular_target": "WNK3 (Homo sapiens, UniProt Q9BYP7)"}, "EPHA2": {"molecular_target": "EPHA2 (Homo sapiens, UniProt P29317)"}, "AurB": {"molecular_target": "AurB (Homo sapiens, UniProt Q96GD4)"}, "CAMKK2": {"molecular_target": "CAMKK2 (Homo sapiens, UniProt Q96RR4)"}, "MEK1": {"molecular_target": "MEK1 (Homo sapiens, UniProt Q02750)"}}, "data": [{"smiles": "O=C1NCCCCCNc2nc(c3ccccc3n2)Nc2cc1[nH]n2", "note": "[21c, (Z)-3^1H-2,5,11-triaza-1(4,2)-quinazolina-3(3,5)-pyrazolacycloundecaphan-4-one]", "values": [{"measurement": "21c Remaining activity, percent of control [%]", "setting": "PAK6", "result": 95.0, "unit": "%"}, {"measurement": "21c Remaining activity, percent of control [%]", "setting": "EIF2AK2", "result": 75.1, "unit": "%"}, {"measurement": "21c Remaining activity, percent of control [%]", "setting": "CLK3", "result": 88.6, "unit": "%"}, {"measurement": "21c Remaining activity, percent of control [%]", "setting": "MAP3K11", "result": 45.8, "unit": "%"}, {"measurement": "21c Remaining activity, percent of control [%]", "setting": "LIMK1", "result": 36.6, "unit": "%"}, {"measurement": "21c Remaining activity, percent of control [%]", "setting": "EPHA1", "result": 99.3, "unit": "%"}, {"measurement": "21c Remaining activity, percent of control [%]", "setting": "PAK3", "result": 103.3, "unit": "%"}, {"measurement": "21c Remaining activity, percent of control [%]", "setting": "MEK5", "result": 70.1, "unit": "%"}, {"measurement": "21c Remaining activity, percent of control [%]", "setting": "VEGFR1", "result": 100.3, "unit": "%"}, {"measurement": "21c Remaining activity, percent of control [%]", "setting": "ABL1", "result": 106.1, "unit": "%"}, {"measurement": "21c Remaining activity, percent of control [%]", "setting": "EGFR", "result": 100.0, "unit": "%"}, {"measurement": "21c Remaining activity, percent of control [%]", "setting": "ACVR1B", "result": 85.2, "unit": "%"}, {"measurement": "21c Remaining activity, percent of control [%]", "setting": "ASK1", "result": 97.7, "unit": "%"}, {"measurement": "21c Remaining activity, percent of control [%]", "setting": "STK39", "result": 49.5, "unit": "%"}, {"measurement": "21c Remaining activity, percent of control [%]", "setting": "INSRR", "result": 96.5, "unit": "%"}, {"measurement": "21c Remaining activity, percent of control [%]", "setting": "ERBB2", "result": 94.1, "unit": "%"}, {"measurement": "21c Remaining activity, percent of control [%]", "setting": "TSK2", "result": 93.8, "unit": "%"}, {"measurement": "21c Remaining activity, percent of control [%]", "setting": "PYK2", "result": 80.8, "unit": "%"}, {"measurement": "21c Remaining activity, percent of control [%]", "setting": "TYK2", "result": 116.8, "unit": "%"}, {"measurement": "21c Remaining activity, percent of control [%]", "setting": "CLK4", "result": 76.4, "unit": "%"}, {"measurement": "21c Remaining activity, percent of control [%]", "setting": "PAK7", "result": 87.1, "unit": "%"}, {"measurement": "21c Remaining activity, percent of control [%]", "setting": "SNARK", "result": 95.6, "unit": "%"}, {"measurement": "21c Remaining activity, percent of control [%]", "setting": "CK2a1", "result": 95.5, "unit": "%"}, {"measurement": "21c Remaining activity, percent of control [%]", "setting": "HIPK4", "result": 115.2, "unit": "%"}, {"measurement": "21c Remaining activity, percent of control [%]", "setting": "HCK", "result": 94.0, "unit": "%"}, {"measurement": "21c Remaining activity, percent of control [%]", "setting": "TNK1", "result": 96.2, "unit": "%"}, {"measurement": "21c Remaining activity, percent of control [%]", "setting": "WNK3", "result": 98.5, "unit": "%"}, {"measurement": "21c Remaining activity, percent of control [%]", "setting": "EPHA2", "result": 82.5, "unit": "%"}, {"measurement": "21c Remaining activity, percent of control [%]", "setting": "AurB", "result": 83.9, "unit": "%"}, {"measurement": "21c Remaining activity, percent of control [%]", "setting": "CAMKK2", "result": 90.8, "unit": "%"}, {"measurement": "21c Remaining activity, percent of control [%]", "setting": "MEK1", "result": 118.7, "unit": "%"}]}]}
